This is an account of results in publication PMC9049205 (RSC Advances, 2020).

Broadly, the EC50 is the concentration that produces a half-maximal response.

Like-named read-outs stand apart in the source and are kept apart here.

Assay [1] concerns influenza virus (A/PR/8/34 H1N1 strain). In words: organism not typed. Particulars: for EC50: 48 h, read-out: Anti-influenza virus activity EC50. The format is cell-based, Influenza A/PR/8/34 (H1N1).
The test system of the next assay is influenza A virus. As to conditions: in vitro; cited from earlier work.
A further assay deals with avian influenza A H5N1. As to conditions: mouse, in vivo; cited from earlier work.

In the case of `Cc1onc(-c2ccccc2)c1C(=O)N1CCC(c2ccc([N+](=O)[O-])cc2Cl)CC1` [Compound 1a, (4-(2-Chloro-4-nitrophenyl)piperidin-1-yl)(5-methyl-3-phenylisoxazol-4yl)methanone], in assay [1], the “SI (selectivity index: CC50/EC50)” value is recorded as 22.02 and the “anti-influenza activity (in words)” value is reported as “excellent activity than ribavirin”. In addition, in assay [1] (MDCK), the EC50 is 0.898 ± 0.004 µM.

In the case of `COc1ccccc1-c1noc(C)c1C(=O)N1CCC(c2ccc([N+](=O)[O-])cc2Cl)CC1` [Compound 1b, (4-(2-Chloro-4-nitrophenyl)piperidin-1-yl)(3-(2-methoxyphenyl)-5-methylisoxazol-4-yl)methanone], in assay [1], the “SI (selectivity index: CC50/EC50)” value turned out to be 272.93 and the “anti-influenza activity (in words)” value is “excellent activity than ribavirin”. Besides, the EC50 in assay [1] (MDCK) stood at 0.253 ± 0.001 µM.

For the compound `CSc1ccccc1-c1noc(C)c1C(=O)N1CCC(c2ccc([N+](=O)[O-])cc2Cl)CC1` [Compound 1c, (4-(2-Chloro-4-nitrophenyl)piperidin-1-yl)(5-methyl-3-(2-(methylthio)phenyl)isoxazol-4-yl)methanone], in assay [1], the “SI (selectivity index: CC50/EC50)” value is on record as 398.41 and the “anti-influenza activity (in words)” value was “excellent activity than ribavirin”. Besides, the EC50 in assay [1] (MDCK) is 0.502 ± 0.002 µM.

Regarding `Cc1onc(-c2cccc(Cl)c2Cl)c1C(=O)N1CCC(c2ccc([N+](=O)[O-])cc2Cl)CC1` [Compound 1d, (4-(2-Chloro-4-nitrophenyl)piperidin-1-yl)(3-(2,3-dichlorophenyl)-5-methylisoxazol-4-yl)methanone], the “anti-influenza activity (in words)” value in assay [1] is “moderate activity”. Moreover, the EC50 in assay [1] (MDCK) stood at 21.572 ± 0.015 µM.

`COc1nc2ccccc2cc1-c1noc(C)c1C(=O)N1CCC(c2ccc([N+](=O)[O-])cc2Cl)CC1` [Compound 1e, (4-(2-Chloro-4-nitrophenyl)piperidin-1-yl)(3-(2-methoxyquinolin-3-yl)-5-methylisoxazol-4-yl)methanone]: in assay [1], the “SI (selectivity index: CC50/EC50)” value was determined as 2.52 and the “anti-influenza activity (in words)” value is “moderate activity”. Besides, in assay [1] (MDCK), the EC50 came to 9.905 ± 0.01 µM.

`COc1ccc(-c2noc(C)c2C(=O)N2CCC(c3ccc([N+](=O)[O-])cc3Cl)CC2)c(OC)c1` [Compound 1f, (4-(2-Chloro-4-nitrophenyl)piperidin-1-yl)(3-(2,4-dimethoxyphenyl)-5-methylisoxazol-4-yl)methanone]: in assay [1], the “SI (selectivity index: CC50/EC50)” value came out at 13.68 and the “anti-influenza activity (in words)” value is given as “excellent activity than ribavirin”. Moreover, the EC50 in assay [1] (MDCK) amounted to 2.036 ± 0.009 µM.

Consider `Cc1onc(-c2ccccc2F)c1C(=O)N1CCC(c2ccc([N+](=O)[O-])cc2Cl)CC1` [Compound 1g, (4-(2-Chloro-4-nitrophenyl)piperidin-1-yl)(3-(2-fluorophenyl)-5-methylisoxazol-4-yl)methanone], for which, in assay [1], the “SI (selectivity index: CC50/EC50)” value worked out at 12.27 and the “anti-influenza activity (in words)” value is reported as “excellent activity than ribavirin”. Moreover, the EC50 in assay [1] (MDCK) is 1.356 ± 0.008 µM.

Take `Cc1onc(-c2ccco2)c1C(=O)N1CCC(c2ccc([N+](=O)[O-])cc2Cl)CC1` [Compound 1h, (4-(2-Chloro-4-nitrophenyl)piperidin-1-yl)(3-(furan-2-yl)-5-methylisoxazol-4-yl)methanone]: the “anti-influenza activity (in words)” value in assay [1] is reported as “moderate activity”. Besides, the concentration for a half-maximal effect (EC50) in assay [1] (MDCK) is 16.226 ± 0.012 µM.

As to `NC(=O)c1ncn([C@@H]2O[C@H](CO)[C@@H](O)[C@H]2O)n1` [Ribavirin, reference compound], the “SI (selectivity index: CC50/EC50)” value in assay [1] was determined as 6.37. Moreover, in assay [1] (MDCK), the concentration giving a half-maximal response (EC50) was 9.891 ± 0.06 µM.

For `Cc1onc(-c2ccccc2)c1C(=O)N1CCN(c2ccc([N+](=O)[O-])cc2Cl)CC1` [nucleozin, Nucleozin], the “median effective concentration (EC50), influenza A virus replication” value in the assay with influenza A virus is reported as “nanomolar”. Besides, in the assay on avian influenza A H5N1, the “protection of mice challenged with lethal doses of avian influenza A H5N1” value was “protected mice”.

Take “(4-(2-Chloro-4-nitrophenyl)piperidin-1-yl)(3-methyl-5-styrylisoxazol-4-yl)methanone [Compound 1i]”: in assay [1], the “anti-influenza activity (in words)” value is listed as “moderate activity” and the concentration for a half-maximal effect (EC50) was 34.483 ± 0.014 µM.

For the compound “(5-Benzyl-3-methylisoxazol-4-yl)(4-(2-chloro-4-nitrophenyl) piperidin-1-yl)methanone [Compound 1j]”, in assay [1], the “anti-influenza activity (in words)” value is on record as “moderate activity” and the EC50 was 19.41 ± 0.012 µM.
